The values that follow come from patent US7273863B1, “Benzophenones as inhibitors of reverse transcriptase” (SmithKline Beecham Corporation, priority 1999, dated 2007).

Type in all cases: cell-based
One test concerns NEV-R. The test can be described thus: MT4 cell assay, antiviral HIV activity (propidium iodide). To be noted: Human immunodeficiency virus 1, MT4, read-out: IC50 (nM) Range.
The subject of test [1] is isogenic HIV-1 RT mutant virus K103N/Y181C. The test can be described thus: HeLa cell assay (HIV-LTR β-galactosidase reporter). To be noted: Human immunodeficiency virus 1, HeLa, read-out: IC50 (nM) Range. The protocol:
(§1) The HeLa cell assay was performed according to a modification of Kimpton J. and Emerman M., Detection of replication-competent and pseudotyped human immunodeficiency virus with a sensitive cell line on the basis of activation of an integrated β-galactosidase gene, J. Virol. 66:2232-2239 (1992), in which HIV-1 infection is detected by the activation of an HIV-LTR driven β-galactosidase reporter that is integrated into the genome of a CD4^+ HeLa cell line. Quantitation of β-galactosidase is achieved by measuring the activation of a chemiluminescent substrate (Tropix). The concentration of each compound required to inhibit 50% (IC50) of the HIV-1 induced β-galactosidase signal, relative to untreated controls, was determined for each isogenic, recombinant virus.
(§2) HeLa-CD4-LTR-β-gal cells were obtained from the NIH AIDS Research and Reference Reagent Program. Cells were propagated in DMEM containing 10% fetal bovine serum, 0.2 mg/ml geneticin and 0.1 mg/ml hygromycin B. Cells were routinely split by trypsinization when confluency reached 80% (approximately every 2 to 3 days).
(§3) DNA encoding the HIV-1 reverse transcriptase was subcloned from a M13 phage into a general shuttle vector, pBCSK+, as a ˜1.65 kbp EcoRI/HindIII ended DNA fragment. The HIV DNA insert of the resulting plasmid, pRT2, was completely sequenced on both strands prior to use in site directed mutagenesis experiments. Specific amino acid replacements were made using Stratagene Quick Change reagents and mutagenic oligonucleotides from Oligos. Following mutagenesis, the entire mutant RT coding sequence was verified by sequencing both DNA strands.
(§4) Mutant HIV-1 strains were isolated by a modified Recombinant Virus Assay (Kellam P. and Larder B., Recombinant virus assay: a rapid, phenotypic assay for assessment of drug susceptibility of human immunodeficiency virus type 1 isolates, Antimicrobial Agents and Chemotherapy, 38:23-30, 1994). 1×10^7 Jurkat T-cells (maintained in RPMI containing 10% fetal bovine serum, split 1:5 every 5 to 6 days) were co-transfected with EcoRI/HindIII digested mutant RT plasmid and Bst EII-digested HIV-1HXB2ΔRT DNA in the presence of DMRIE-C transfection reagent (Gibco) according to supplier's recommended protocol. Each mutant RT coding sequence was crossed into the RT-deleted HIV-1 viral DNA backbone by in vivo homologous recombination. Transfected cell cultures were expanded and monitored until syncitia formation and CPE were extensive. Virus was harvested by clear spin of the culture supernatants and frozen at −80 C as primary stock. Recombinant progeny virus was sequenced in the RT region to confirm the mutant genotype. Virus stocks were further expanded by infection of Jurkat cells, harvested and stored as frozen aliquots. Stocks were titered in HeLa MAGI cells for assay.
(§5) The HIV-1HXB2 mutants were titered in the HeLa MAGI assay system to determine the relative light units (RLU) per ml, a measure of infectivity relevant for this assay system. Virus stocks were diluted in a 2-fold series into DMEM containing 10% fetal bovine serum plus 20 ug/ml DEAE-dextran and assayed as described in the Experimental Protocol section, below.
(§6) 96-well microtiter plate(s) (Costar #3598) were seeded with 3×10^3 HeLa-CD4-LTR-β-gal in 100 μl DMEM containing 10% fetal bovine serum. Plates were placed in a 37° C., 5% CO2 humidified incubator overnight. The following day, mutant virus stocks were thawed in a room temperature water bath and diluted into DMEM containing 10% fetal bovine serum and 20 μg/ml DEAE-dextran to achieve an input of 1500 to 2000 RLU/ml. All media was removed with an 8 channel manifold aspirator and 35 μl (50 to 70 total RLUs) of diluted virus was added to each well for virus adsorption. Plates were placed in a 37° C., 5% CO2 humidified incubator for 1.5 to 2 hours.
(§7) Compound titration plates were prepared at 1.35× final concentration during the virus adsorption period. […]

Test [2] concerns isogenic HIV-1 RT mutant virus K103N/G190A. The test can be described thus: HeLa cell assay (HIV-LTR β-galactosidase reporter). To be noted: Human immunodeficiency virus 1, HeLa, read-out: IC50 (nM) Range. The protocol:
as §1, §2, §3, §4, §5, §6, §7

Test [3] concerns isogenic HIV-1 RT mutant virus V106I/Y181C. The test can be described thus: HeLa cell assay (HIV-LTR β-galactosidase reporter). To be noted: Human immunodeficiency virus 1, HeLa, read-out: IC50 (nM) Range. The protocol:
as §1, §2, §3, §4, §5, §6, §7

Test [4] relates to isogenic HIV-1 RT mutant virus G190A. The test can be described thus: HeLa cell assay (HIV-LTR β-galactosidase reporter). To be noted: Human immunodeficiency virus 1, HeLa, read-out: IC50 (nM) Range. The protocol: as §1, §2, §3, §4, §5, §6, §7
For test [5], the system named is isogenic HIV-1 RT mutant virus K103N/P225H. The test can be described thus: HeLa cell assay (HIV-LTR β-galactosidase reporter). To be noted: Human immunodeficiency virus 1, HeLa, read-out: IC50 (nM) Range. The protocol: as §1, §2, §3, §4, §5, §6, §7
The subject of test [6] is isogenic HIV-1 RT mutant virus P236L. Kind of test: HeLa cell assay (HIV-LTR β-galactosidase reporter). As to conditions: Human immunodeficiency virus 1, HeLa, read-out: IC50 (nM) Range. The protocol: as §1, §2, §3, §4, §5, §6, §7
Test [7] relates to isogenic HIV-1 RT mutant virus K103N. The test can be described thus: HeLa cell assay (HIV-LTR β-galactosidase reporter). As to conditions: Human immunodeficiency virus 1, HeLa, read-out: IC50 (nM) Range. The protocol:
as §1, §2, §3, §4, §5, §6, §7

Test [8] concerns isogenic HIV-1 RT mutant virus V106I. The test can be described thus: HeLa cell assay (HIV-LTR β-galactosidase reporter). As to conditions: Human immunodeficiency virus 1, HeLa, read-out: IC50 (nM) Range. The protocol: as §1, §2, §3, §4, §5, §6, §7
Test [9] has as its system isogenic HIV-1 RT mutant virus V108I/Y181C. The test can be described thus: HeLa cell assay (HIV-LTR β-galactosidase reporter). To be noted: Human immunodeficiency virus 1, HeLa, read-out: IC50 (nM) Range. The protocol: as §1, §2, §3, §4, §5, §6, §7
For test [10], the system named is isogenic HIV-1 RT mutant virus K103N/V108I. The test can be described thus: HeLa cell assay (HIV-LTR β-galactosidase reporter). As to conditions: Human immunodeficiency virus 1, HeLa, read-out: IC50 (nM) Range. The protocol:
as §1, §2, §3, §4, §5, §6, §7

In test [11] the test system is isogenic HIV-1 RT mutant virus L100I. The test can be described thus: HeLa cell assay (HIV-LTR β-galactosidase reporter). To be noted: Human immunodeficiency virus 1, HeLa, read-out: IC50 (nM) Range. The protocol:
as §1, §2, §3, §4, §5, §6, §7

The subject of test [12] is isogenic HIV-1 RT mutant virus Y181C. Kind of test: HeLa cell assay (HIV-LTR β-galactosidase reporter). To be noted: Human immunodeficiency virus 1, HeLa, read-out: IC50 (nM) Range. The protocol:
as §1, §2, §3, §4, §5, §6, §7

Test [13] deals with isogenic HIV-1 RT mutant virus V108I. The test can be described thus: HeLa cell assay (HIV-LTR β-galactosidase reporter). To be noted: Human immunodeficiency virus 1, HeLa, read-out: IC50 (nM) Range. The protocol:
as §1, §2, §3, §4, §5, §6, §7

For test [14], the system named is isogenic HIV-1 RT mutant virus P225H. Kind of test: HeLa cell assay (HIV-LTR β-galactosidase reporter). To be noted: Human immunodeficiency virus 1, HeLa, read-out: IC50 (nM) Range. The protocol:
as §1, §2, §3, §4, §5, §6, §7

Test [15] concerns isogenic HIV-1 RT mutant virus V106A/Y181C. Kind of test: HeLa cell assay (HIV-LTR β-galactosidase reporter). As to conditions: Human immunodeficiency virus 1, HeLa, read-out: IC50 (nM) Range. The protocol: as §1, §2, §3, §4, §5, §6, §7

The structures appear in SMILES notation. A value given as a limit tells only on which side of the number the result lay.

Regarding `Cc1cc(S(N)(=O)=O)ccc1NC(=O)COc1ccc(Cl)cc1C(=O)c1cc(F)cc(C#N)c1` [Compound 491], the IC50 (commonly the midpoint of a concentration-inhibition curve) with NEV-R is under 10 nM; in test [1], under 10 nM; in test [2] it was 11 to 100 nM; in test [3], 11 to 100 nM; in test [4], under 10 nM; in test [5], under 10 nM. The concentration for half-maximal inhibition (IC50) in test [6], in test [7], in [8], in test [9], in test [10] and in [11] was under 10 nM in each case. The IC50 in [12], in [13], in test [14] and in [15] was under 10 nM throughout.
With `CCc1cc(C#N)cc(C(=O)c2cc(Cl)ccc2OCC(=O)Nc2ccc(S(N)(=O)=O)cc2C)c1` [Compound 498], the IC50 is under 10 nM in the test on NEV-R; under 10 nM in [1]; under 10 nM in test [2]; 11 to 100 nM in test [3]; under 10 nM in [4]; under 10 nM in test [5]. For the same molecule, the IC50 in test [6], in test [7], in [8], in [9], in [10] and in test [11] was under 10 nM in each case. The half-inhibitory concentration (IC50) in test [12], in test [13], in [14] and in [15] was under 10 nM each time.
Take `Cc1cc(S(N)(=O)=O)ccc1NC(=O)COc1ccc(Cl)cc1C(=O)c1cccc(C#N)n1` [Compound 637]: the IC50 (with NEV-R; in [1]; in [2]; in test [3]; in [4]; in test [5]) was under 10 nM in each case. For the same molecule, the IC50 in test [6], in test [7], in [8], in [9], in [10] and in [11] was under 10 nM in each case. Further, the IC50 in test [12], in test [14] and in test [15] was under 10 nM in each case.
In the case of `Cc1cc(C)cc(C(=O)c2cc(Cl)ccc2OCC(=O)Nc2ccc(S(N)(=O)=O)cc2C)c1` [Compound 478], the IC50 (with NEV-R; in test [1]; in [2]; in [3]; in test [4]; in test [5]) was under 10 nM each time. Moreover, the IC50 in test [6], in test [7], in test [8], in test [9], in [10] and in test [11] was under 10 nM throughout. Further, the concentration for half-maximal inhibition (IC50) in test [12], in test [13], in test [14] and in [15] was under 10 nM throughout.
On to `Cc1cc(C#N)cc(C(=O)c2cc(Cl)ccc2OCC(=O)Nc2ccc(OCCCN3CC=CC3)cc2C)c1` [Compound 593], for which the half-maximal inhibitory concentration (IC50) with NEV-R is under 10 nM; in test [1] it was under 10 nM; in test [2], under 10 nM; in test [3] it was 11 to 100 nM; in [4], under 10 nM; in [5], under 10 nM. Further, the half-maximal inhibitory concentration (IC50) in test [6], in [7], in test [8], in [9], in [10] and in test [11] was under 10 nM in each case. For the same molecule, the half-maximal inhibitory concentration (IC50) in [12], in test [13], in [14] and in test [15] was under 10 nM throughout.
As for `Cc1cc(C#N)cc(C(=O)c2cc(Cl)ccc2OCC(=O)Nc2cnc(S(N)(=O)=O)cc2C)c1` [Compound 587], the IC50 is under 10 nM with NEV-R; under 10 nM in test [1]; under 10 nM in test [2]; 11 to 100 nM in test [3]; under 10 nM in test [4]; under 10 nM in [5]. Moreover, the half-maximal inhibitory concentration (IC50) in test [6], in [7], in test [8], in test [9], in [10] and in test [11] was under 10 nM each time. Moreover, the IC50 in [12], in test [13], in test [14] and in [15] was under 10 nM each time.
With `Cc1cc(C#N)cc(C(=O)c2cc(Cl)ccc2OCC(=O)Nc2ccc(S(N)(=O)=O)nc2C)c1` [Compound 503], the concentration for half-maximal inhibition (IC50) (in the test with NEV-R; in test [1]; in test [2]; in test [3]; in test [4]; in test [5]) was under 10 nM each time. Besides, the IC50 in test [6], in [7], in [8], in [9], in [10] and in [11] was under 10 nM throughout. Also, the IC50 in test [12], in test [13], in test [14] and in test [15] was under 10 nM in each case.
In the case of `Cc1cc(C#N)cc(C(=O)c2cc(Cl)ccc2OCC(=O)Nc2ccc(S(N)(=O)=O)cc2C)c1` [Compound 564], the concentration for half-maximal inhibition (IC50) (with NEV-R; in [1]; in [2]; in [3]; in test [4]; in test [5]) was under 10 nM each time. For the same molecule, the IC50 in test [6], in test [7], in [8], in [9], in test [10] and in [11] was under 10 nM each time. Moreover, the IC50 in test [12], in [14] and in test [15] was under 10 nM in each case.
For `Cc1cc(S(N)(=O)=O)ccc1NC(=O)COc1ccc(Cl)cc1C(=O)c1cc(Cl)cc(C#N)c1` [Compound 475], the 50% inhibitory concentration (IC50) was under 10 nM in the test with NEV-R; under 10 nM in [1]; under 10 nM in test [2]; 11 to 100 nM in test [3]; under 10 nM in test [4]; under 10 nM in test [5]. Further, the IC50 in [6], in [7], in [8], in test [9], in test [10] and in test [11] was under 10 nM throughout. Moreover, the concentration for half-maximal inhibition (IC50) in test [12], in test [13], in test [14] and in [15] was under 10 nM throughout.
